Laboratory results: patent US20180370927A1, “MICROBIOCIDAL OXADIAZOLE DERIVATIVES” (SYNGENTA PARTICIPATIONS AG, priority 2015, published 2018)

Experiments:
[1] = test system: Puccinia recondita f. Sp. Tritici; assay: Puccinia recondita f. sp. tritici / wheat / leaf disc preventative (brown rust); assay type: in vivo; details: foliar, 200 ppm in the applied formulation, wheat leaf segments, preventative, assessed 7 to 9 days after application, read-out: disease control compared to untreated control leaf disks
In short: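 Wheat cv. Kanzler leaf segments on agar sprayed with formulated compound in water, inoculated with rust spores 1 day later. Incubated at 19° C, 75% rh, 12 h light/12 h dark; percent disease control versus untreated scored 7 to 9 days after application; tested at 200 ppm.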

[2] = test system: Puccinia recondita f. Sp. Tritici; assay: Puccinia recondita f. sp. tritici / wheat / leaf disc curative (brown rust); assay type: in vivo; details: foliar, 200 ppm in the applied formulation, wheat leaf segments, curative (applied 1 day after inoculation), assessed 6 to 8 days after application, read-out: disease control compared to untreated control leaf disks
In short: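 Curative treatment: formulated compound in water was applied 1 day post-inoculation to spore-inoculated wheat cv. Kanzler segments held on agar. Segments stayed at 19° C and 75% relative humidity (12 h photoperiod after application), and disease control relative to untreated checks was assessed 6 to 8 days later.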

Phakopsora pachyrhizi = Phakopsora pachyrhizi / soybean / leaf disc preventative (Asian soybean rust); assay type: in vivo; details: foliar, 200 ppm in the applied formulation, soybean leaf disks, assessed 12 to 14 days after application, read-out: disease control compared to untreated control leaf disks
In short: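 Soybean leaf discs on water agar were sprayed with formulated compound diluted in water, then inoculated one day later with spore suspension on the lower leaf surface. Held 24-36 h dark at 20° C., 75% RH, then 12 h light/day; percent disease control versus untreated scored 12 to 14 days after application.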

[3] = test system: Glomerella lacenarium (Colletotrichum lacenarium); assay: Glomerella lacenarium (Colletotrichum lacenarium) liquid culture / cucumber / preventative (anthracnose); assay type: cell-based; details: 20 ppm in the applied formulation, liquid culture in PDB, 24° C., 3 to 4 days after application, read-out: disease control (inhibition of growth, photometric) compared to untreated control
In short: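 At 20 ppm in the applied formulation, compounds were mixed with fungal spores in potato dextrose broth and held at 24° C. After 3–4 days, photometric growth measurement gave percent antifungal activity relative to untreated control.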

CCON(Cc1ccc(-c2noc(C(F)(F)F)n2)cc1)C(=O)C(=O)CC [Compound 1.29, N-ethoxy-2-oxo-N-[[4-[5-(trifluoromethyl)-1,2,4-oxadiazol-3-yl]phenyl]methyl]butanamide]
≥ 80%: pest or weed control at 200 ppm [1] | pest or weed control at 200 ppm [2] | pest or weed control at 200 ppm (Phakopsora pachyrhizi) | inhibition at 20 ppm [3]

CCON=C(C)C(=O)N(Cc1ccc(-c2noc(C(F)(F)F)n2)cc1)OC [Compound 2.12, 2-ethoxyimino-N-methoxy-N-[[4-[5-(trifluoromethyl)-1,2,4-oxadiazol-3-yl]phenyl]methyl] propanamide]
≥ 80%: pest or weed control at 200 ppm [1] | pest or weed control at 200 ppm [2] | pest or weed control at 200 ppm (Phakopsora pachyrhizi) | inhibition at 20 ppm [3]

CC(C)CC(=O)C(=O)NCc1ccc(-c2noc(C(F)(F)F)n2)cc1F [Compound 1.38, N-[[2-fluoro-4-[5-(trifluoromethyl)-1,2,4-oxadiazol-3-yl]phenyl]methyl]-4-methyl-2-oxo-pentanamide]
≥ 80%: pest or weed control at 200 ppm [1] | pest or weed control at 200 ppm [2] | pest or weed control at 200 ppm (Phakopsora pachyrhizi) | inhibition at 20 ppm [3]

CC(C)(C)C(=O)C(=O)NCc1ccc(-c2noc(C(F)(F)F)n2)c(F)c1F [Compound 1.49, N-[[2,3-difluoro-4-[5-(trifluoromethyl)-1,2,4-oxadiazol-3-yl]phenyl]methyl]-3,3-dimethyl-2-oxo-butanamide]
≥ 80%: pest or weed control at 200 ppm [1] | pest or weed control at 200 ppm [2] | pest or weed control at 200 ppm (Phakopsora pachyrhizi) | inhibition at 20 ppm [3]

CCCC(=O)C(=O)N(Cc1ccc(-c2noc(C(F)(F)F)n2)cc1)OC [Compound 1.3, N-methoxy-2-oxo-N-[[4-[5-(trifluoromethyl)-1,2,4-oxadiazol-3-yl]phenyl]methyl]pentanamide]
≥ 80%: pest or weed control at 200 ppm [1] | pest or weed control at 200 ppm [2] | pest or weed control at 200 ppm (Phakopsora pachyrhizi) | inhibition at 20 ppm [3]

CCN(Cc1ccc(-c2noc(C(F)(F)F)n2)cc1)C(=O)C(=O)C(C)C [Compound 1.96, N-ethyl-3-methyl-2-oxo-N-[[4-[5-(trifluoromethyl)-1,2,4-oxadiazol-3-yl]phenyl]methyl]butanamide]
≥ 80%: pest or weed control at 200 ppm [1] | pest or weed control at 200 ppm [2] | pest or weed control at 200 ppm (Phakopsora pachyrhizi) | inhibition at 20 ppm [3]

CC(=O)C(=O)N(C)Cc1ccc(-c2noc(C(F)(F)F)n2)cc1 [Compound 1.20, N-methyl-2-oxo-N-[[4-[5-(trifluoromethyl)-1,2,4-oxadiazol-3-yl]phenyl]methyl]propanamide]
≥ 80%: pest or weed control at 200 ppm [1] | pest or weed control at 200 ppm [2] | pest or weed control at 200 ppm (Phakopsora pachyrhizi) | inhibition at 20 ppm [3]

COCCN(Cc1ccc(-c2noc(C(F)(F)F)n2)cc1)C(=O)C(C)=O [Compound 1.10, N-(2-methoxyethyl)-2-oxo-N-[[4-[5-(trifluoromethyl)-1,2,4-oxadiazol-3-yl]phenyl]methyl]propanamide]
≥ 80%: pest or weed control at 200 ppm [1] | pest or weed control at 200 ppm [2] | pest or weed control at 200 ppm (Phakopsora pachyrhizi) | inhibition at 20 ppm [3]

CCN(Cc1ccc(-c2noc(C(F)(F)F)n2)cc1)C(=O)C(C)=O [Compound 1.18, N-ethyl-2-oxo-N-[[4-[5-(trifluoromethyl)-1,2,4-oxadiazol-3-yl]phenyl]methyl]propanamide]
≥ 80%: pest or weed control at 200 ppm [1] | pest or weed control at 200 ppm [2] | pest or weed control at 200 ppm (Phakopsora pachyrhizi) | inhibition at 20 ppm [3]

Cc1cc(-c2noc(C(F)(F)F)n2)ccc1CNC(=O)C(=O)N(C)C [Compound 4.97, N′,N′-dimethyl-N-[[2-methyl-4-[5-(trifluoromethyl)-1,2,4-oxadiazol-3-yl]phenyl]methyl] oxamide]
≥ 80%: pest or weed control at 200 ppm [1] | pest or weed control at 200 ppm [2] | pest or weed control at 200 ppm (Phakopsora pachyrhizi) | inhibition at 20 ppm [3]

O=C(NCc1ccc(-c2noc(C(F)(F)F)n2)cc1F)C(=O)c1ccccc1 [Compound 1.37, N-[[2-fluoro-4-[5-(trifluoromethyl)-1,2,4-oxadiazol-3-yl]phenyl]methyl]-2-oxo-2-phenyl-acetamide]
≥ 80%: pest or weed control at 200 ppm [1] | pest or weed control at 200 ppm [2] | pest or weed control at 200 ppm (Phakopsora pachyrhizi) | inhibition at 20 ppm [3]

CCC(=O)C(=O)N(Cc1ccc(-c2noc(C(F)(F)F)n2)cc1)OC [Compound 1.89, N-methoxy-2-oxo-N-[[4-[5-(trifluoromethyl)-1,2,4-oxadiazol-3-yl]phenyl]methyl]butanamide]
≥ 80%: pest or weed control at 200 ppm [1] | pest or weed control at 200 ppm [2] | pest or weed control at 200 ppm (Phakopsora pachyrhizi) | inhibition at 20 ppm [3]

CCC(=O)C(=O)N(CC)Cc1ccc(-c2noc(C(F)(F)F)n2)cc1 [Compound 1.99, N-ethyl-2-oxo-N-[[4-[5-(trifluoromethyl)-1,2,4-oxadiazol-3-yl]phenyl]methyl]butanamide]
≥ 80%: pest or weed control at 200 ppm [1] | pest or weed control at 200 ppm [2] | pest or weed control at 200 ppm (Phakopsora pachyrhizi) | inhibition at 20 ppm [3]

CCN(C)C(=O)C(=O)NCc1ccc(-c2noc(C(F)(F)F)n2)cc1 [Compound 4.54, N′-ethyl-N′-methyl-N-[[4-[5-(trifluoromethyl)-1,2,4-oxadiazol-3-yl]phenyl]methyl] oxamide]
≥ 80%: pest or weed control at 200 ppm [1] | pest or weed control at 200 ppm [2] | pest or weed control at 200 ppm (Phakopsora pachyrhizi) | inhibition at 20 ppm [3]

CON(Cc1ccc(-c2noc(C(F)(F)F)n2)cc1)C(=O)C(=O)C(C)(C)C [Compound 1.74, N-methoxy-3,3-dimethyl-2-oxo-N-[[4-[5-(trifluoromethyl)-1,2,4-oxadiazol-3-yl]phenyl]methyl]butanamide]
≥ 80%: pest or weed control at 200 ppm [1] | pest or weed control at 200 ppm [2] | pest or weed control at 200 ppm (Phakopsora pachyrhizi) | inhibition at 20 ppm [3]

CC(C)CC(=O)C(=O)NCc1ccc(-c2noc(C(F)(F)F)n2)c(F)c1F [Compound 1.47, N-[[2,3-difluoro-4-[5-(trifluoromethyl)-1,2,4-oxadiazol-3-yl]phenyl]methyl]-4-methyl-2-oxo-pentanamide]
≥ 80%: pest or weed control at 200 ppm [1] | pest or weed control at 200 ppm [2] | pest or weed control at 200 ppm (Phakopsora pachyrhizi) | inhibition at 20 ppm [3]

O=C(NCc1ccc(-c2noc(C(F)(F)F)n2)cc1)C(=O)c1ccccc1 [Compound 1.75, 2-oxo-2-phenyl-N-[[4-[5-(trifluoromethyl)-1,2,4-oxadiazol-3-yl]phenyl]methyl]acetamide]
≥ 80%: pest or weed control at 200 ppm [1] | pest or weed control at 200 ppm [2] | pest or weed control at 200 ppm (Phakopsora pachyrhizi) | inhibition at 20 ppm [3]

NC(=O)C(=O)N(Cc1ccc(-c2noc(C(F)(F)F)n2)cc1)C1COC1 [Compound 4.90, N′-(oxetan-3-yl)-N′-[[4-[5-(trifluoromethyl)-1,2,4-oxadiazol-3-yl]phenyl]methyl] oxamide]
≥ 80%: pest or weed control at 200 ppm [1] | pest or weed control at 200 ppm [2] | pest or weed control at 200 ppm (Phakopsora pachyrhizi) | inhibition at 20 ppm [3]

CON(Cc1ccc(-c2noc(C(F)(F)F)n2)cc1F)C(=O)C(=O)CC(C)C [Compound 1.55, N-[[2-fluoro-4-[5-(trifluoromethyl)-1,2,4-oxadiazol-3-yl]phenyl]methyl]-N-methoxy-4-methyl-2-oxo-pentanamide]
≥ 80%: pest or weed control at 200 ppm [1] | pest or weed control at 200 ppm [2] | pest or weed control at 200 ppm (Phakopsora pachyrhizi) | inhibition at 20 ppm [3]

CON(Cc1ccc(-c2noc(C(F)(F)F)n2)cc1F)C(=O)C(=O)N(C)C [Compound 4.95, N′-[[2-fluoro-4-[5-(trifluoromethyl)-1,2,4-oxadiazol-3-yl]phenyl]methyl]-N′-methoxy-N,N-dimethyl-oxamide]
≥ 80%: pest or weed control at 200 ppm [1] | pest or weed control at 200 ppm [2] | pest or weed control at 200 ppm (Phakopsora pachyrhizi) | inhibition at 20 ppm [3]

CON(C)C(=O)C(=O)N(Cc1ccc(-c2noc(C(F)(F)F)n2)cc1)OC [Compound 4.65, N,N′-dimethoxy-N-methyl-N′-[[4-[5-(trifluoromethyl)-1,2,4-oxadiazol-3-yl]phenyl]methyl] oxamide]
≥ 80%: pest or weed control at 200 ppm [1] | pest or weed control at 200 ppm [2] | pest or weed control at 200 ppm (Phakopsora pachyrhizi) | inhibition at 20 ppm [3]

CON(Cc1ccc(-c2noc(C(F)(F)F)n2)cc1)C(=O)C(=O)N(C)C [Compound 4.39, N′-methoxy-N,N-dimethyl-N′-[[4-[5-(trifluoromethyl)-1,2,4-oxadiazol-3-yl]phenyl]methyl] oxamide]
≥ 80%: pest or weed control at 200 ppm [1] | pest or weed control at 200 ppm [2] | pest or weed control at 200 ppm (Phakopsora pachyrhizi) | inhibition at 20 ppm [3]

C#CCN(Cc1ccc(-c2noc(C(F)(F)F)n2)cc1)C(=O)C(=O)CCC [Compound 1.5, 2-oxo-N-prop-2-ynyl-N-[[4-[5-(trifluoromethyl)-1,2,4-oxadiazol-3-yl]phenyl]methyl]pentanamide]
≥ 80%: pest or weed control at 200 ppm [1] | pest or weed control at 200 ppm [2] | pest or weed control at 200 ppm (Phakopsora pachyrhizi) | inhibition at 20 ppm [3]
